“And” between values parts separate entries of the source, which are not always exact repeats. Equal entries are not always repeated.
Tests used:
[1] = test system: mute-2 seedlings expressing MUTEpro::MUTE-GFP, MUTEpro::MUTEE162A_E163A-GFP or MUTEpro::MUTER133A_R134A-GFP; assay: Stomidazolone resistance of mute-2 seedlings expressing engineered MUTE-GFP; format: in vivo, Arabidopsis
Experimental: Arabidopsis accession Columbia (Col-0) was used as wild-type. […] Their genotype and transcript reduction were confirmed. The presence of transgenes/mutant alleles were confirmed by genotyping. For liquid culture with Stomidazolone (AYSJ929, compound 3), the analogs (AYSJ1059 (compound 5) and AYSJ1061 (compound 6)), degraded compound lzx103 (compound 4), and SIM3* (compound 7), all compounds were dissolved in dimethyl sulfoxide (DMSO, Molecular biology grade, Fujifilm Wako, Japan 046-21981), Col-0 seeds were sown in 96-well plates (TL5003; True Line) containing 95 μL of 1/2 MS media containing 0.5% sucrose with rotary shaking at 140 rpm under continuous light at 22 °C. Five μL of compounds were dissolved in DMSO at 10 mM and diluted with liquid 1/2 MS media to 1 mM and added on 1-day-old seedlings (final concentration, 50 μM). Seedlings were incubated for 8 days, and at day 9 seedling abaxial cotyledons were observed through confocal microscopy. For liquid culture of scrm-D_S343 and scrm-D_S423, 1/2 MS liquid media without sucrose was used. For the solid culture, 0, 20, 50 or 100 μM Stomidazolone were solidified with low-melting agarose (5805S, PrimeGelTM Agarose LMT 1-20 K, TAKARA Bio). Briefly, 1/2 MS salt, 0.5% sucrose, and 0.8% low melting agarose were mixed in water and autoclaved. After cooling the medium at around 30 °C, Stomidazolone (500x, dissolved in DMSO) was added and poured into 90 mm petri dishes (Asnol Petri Dish JP φ90 x 15 mm, 3-1491-01, AS ONE). Col-0 seeds were sown on Stomidazolone-containing 1/2 MS agarose media and grown under continuous light for 9 days.
The following constructs for transgenic plants were generated in this study: MUTEpro::MUTE-GFP (pAH11), MUTEpro::MUTEE162AE163A-GFP (pHS133), MUTEpro::MUTER133AR134A-GFP (pHS134). The original MUTEpro::MUTE-GFP construct (pLJP155) was generated via a different cloning strategy with different antibiotics selection. We therefore re-generated the wild-type Three-way Gateway version of MUTEpro::MUTE-GFP (pAH11) as a control. MUTE genomic coding construct without stop codon (pAR205) and MUTE promoter construct (pAR202) were subjected to the Gateway reaction with R4pGWB504[56]. The wild-type MUTE-GFP lines with the identical R4pGWB504 backbone enable a proper comparison of phenotypic complementation. The mutant versions of MUTE constructs were generated in the same way after site-directed mutagenesis using Q5 Site-directed mutagenesis kit (NEB) and subjected to the Three-Way Gateway reaction after sequence confirmation. The constructs were then transformed into the Agrobacterium strain GV3101 and floral dipped into mute-2/+ plants. To construct CaMV35S::H2B-mScarlet-I3/pPZP211 (DKv1400), 35S promoter (35Sp::RFP-CenH3 with DKp665-DKp1254)[57], H2B-(SGGGG)2 linker (from DKv1200[58] with DKp2412-DKp2599), mScarlet-I3 (from codon optimized synthetic DNA for A. thaliana), Nos terminator (from DKv1200 with DKp1251-DKp2598) were amplified using KOD one polymerase (TOYOBO). The PCR products were assembled into BamHI/EcoRI-digested pPZP211[59] using the NEBuilder HiFi DNA Assembly (NEB). For detailed lists of oligo DNA and plasmid information, see Tables S5 and S6, respectively.
For quantitative analysis of the abaxial leaf epidermis, confocal images were taken on the days after germination as indicated in the Figure legends. Preparation of images was done as described previously[32],[70]. For counting epidermal cell types, stomatal density, stomatal precursor cells (meristemoids), total stomata-lineage cells (stomata and meristemoids) were calculated by counting cell types in an area of 0.4 mm^2 (0.63 mm × 0.63 mm) and plotted as per mm^2. A series of Z-stack confocal images was obtained to obtain images covering the epidermis and capturing GFP/YFP signal from the reporter lines. The area and the number of epidermal cells were quantified by using FIJI-ImageJ. Statistical analyses were performed using R ver. 4.0.2. […]

MUTE+AD (control yeast) = target: T1, MUTE+AD (control yeast) (Arabidopsis thaliana, UniProt Q9M8K6); assay: Y2H quantitative α-galactosidase assay, control pair MUTE+AD; format: cell-based; settings: individual replicates, listed as AYSJ929
T1 construct: expressed in transfected cells; host or cells: yeast strain AH109
T1 sequence (Q9M8K6 1-202): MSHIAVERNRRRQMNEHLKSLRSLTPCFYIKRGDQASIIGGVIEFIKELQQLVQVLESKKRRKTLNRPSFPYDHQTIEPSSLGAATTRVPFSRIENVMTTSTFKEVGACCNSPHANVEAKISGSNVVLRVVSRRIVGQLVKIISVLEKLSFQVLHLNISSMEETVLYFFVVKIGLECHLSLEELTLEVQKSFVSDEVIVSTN
From the text: Supplement 41467_2024_53214_MOESM7_ESM.xlsx, sheet "Fig.6b" | column: a-galactosidase [milliunits /(ml x cell)]

[2] = line AH11 Ln5, 20 μM Stomidazolone, cotyledon abaxial epidermis, individual seedlings
[3] = line HS133 Ln26, 20 μM Stomidazolone, cotyledon abaxial epidermis, individual seedlings
[4] = line HS134 Ln26, 20 μM Stomidazolone, cotyledon abaxial epidermis, individual seedlings
[5] = transgenic line AH11 Ln25, cotyledon abaxial epidermis, 20 μM Stomidazolone, individual seedlings
[6] = transgenic line HS133 Ln19, cotyledon abaxial epidermis, 20 μM Stomidazolone, individual seedlings
[7] = transgenic line HS134 Ln23, cotyledon abaxial epidermis, 20 μM Stomidazolone, individual seedlings

**Q.** How did the “effect on numbers of stomata and meristemoids (in words)” value ([1]; 20 μM, eight days, MUTEpro::MUTEE162A_E163A-GFP and MUTEpro::MUTER133A_R134A-GFP in mute-2) turn out when O=C1C(c2ccccc2)=NC(NS(=O)(=O)c2ccccc2)(c2ccccc2)N1S(=O)(=O)c1ccccc1 (centres unmarked) [Stomidazolone] was run?
**A.** The value was “did not significantly affect the numbers of stomata and meristemoids”.

**Q.** What about the “effect on number of stomata (in words)” value ([1]; 20 μM, eight days, control MUTEpro::MUTE-GFP mute-2) of the same molecule?
**A.** Its value is “significantly reduced the number of stomata”.

**Q.** What about the Meristemoid density [1, 2] of the same molecule?
**A.** The Meristemoid density was 0 per mm2 and 2 per mm2 and 5 per mm2.

**Q.** What about the “Stomata Total density” value [1, 2] of the same molecule?
**A.** Its value is 165 per mm2 and 160 per mm2 and 190 per mm2 and 197 per mm2 and 136 per mm2 and 163 per mm2 and 180 per mm2.

**Q.** And the “total (stomata and meristemoids) density” value [1, 2]?
**A.** The value was 165 per mm2 and 163 per mm2 and 192 per mm2 and 199 per mm2 and 141 per mm2 and 182 per mm2.

**Q.** And the Meristemoid density [1, 3]?
**A.** Its Meristemoid density is 2 per mm2 and 0 per mm2 and 5 per mm2.

**Q.** What about the “Stomata Total density” value [1, 3] of the same molecule?
**A.** Its value is 279 per mm2 and 170 per mm2 and 177 per mm2 and 226 per mm2 and 425 per mm2 and 199 per mm2.

**Q.** And the “total (stomata and meristemoids) density” value [1, 3]?
**A.** Its value is 282 per mm2 and 170 per mm2 and 180 per mm2 and 177 per mm2 and 226 per mm2 and 425 per mm2 and 182 per mm2 and 202 per mm2.

**Q.** What about the Meristemoid density [1, 4] of the same molecule?
**A.** The Meristemoid density was 0 per mm2 and 7 per mm2 and 29 per mm2 and 5 per mm2.

**Q.** What about the Stomata density [1, 4] of the same molecule?
**A.** Its Stomata density is 279 per mm2 and 309 per mm2 and 190 per mm2 and 194 per mm2 and 272 per mm2 and 294 per mm2 and 367 per mm2 and 304 per mm2.

**Q.** What about the “total (stomata and meristemoids) density” value [1, 4] of the same molecule?
**A.** The value was 279 per mm2 and 316 per mm2 and 197 per mm2 and 224 per mm2 and 272 per mm2 and 294 per mm2 and 367 per mm2 and 309 per mm2.

**Q.** And the Meristemoid density [1, 5]?
**A.** Its Meristemoid density is 0 per mm2 and 5 per mm2 and 2 per mm2.

**Q.** What about the stomatal density [1, 5] of the same molecule?
**A.** Its stomatal density is 197 per mm2 and 216 per mm2 and 250 per mm2 and 287 per mm2 and 219 per mm2 and 182 per mm2 and 226 per mm2.

**Q.** And the “total (stomata and meristemoids) density” value [1, 5]?
**A.** The value was 197 per mm2 and 221 per mm2 and 253 per mm2 and 287 per mm2 and 219 per mm2 and 216 per mm2 and 182 per mm2 and 226 per mm2.

**Q.** What about the Meristemoid density [1, 6] of the same molecule?
**A.** Its Meristemoid density is 0 per mm2 and 5 per mm2 and 2 per mm2 and 17 per mm2.

**Q.** And the stomatal density [1, 6]?
**A.** Its stomatal density is 267 per mm2 and 442 per mm2 and 316 per mm2 and 250 per mm2 and 209 per mm2 and 224 per mm2 and 437 per mm2 and 294 per mm2.

**Q.** What about the “total (stomata and meristemoids) density” value [1, 6] of the same molecule?
**A.** The value was 267 per mm2 and 442 per mm2 and 321 per mm2 and 255 per mm2 and 209 per mm2 and 228 per mm2 and 440 per mm2 and 311 per mm2.

**Q.** What about the Meristemoid density [1, 7] of the same molecule?
**A.** The Meristemoid density was 0 per mm2 and 5 per mm2.

**Q.** And the “stomatal density (Stomata Total)” value [1, 7]?
**A.** The value was 345 per mm2 and 221 per mm2 and 180 per mm2 and 267 per mm2 and 479 per mm2 and 316 per mm2 and 207 per mm2 and 199 per mm2.

**Q.** And the “total (stomata and meristemoids) density” value [1, 7]?
**A.** The value was 345 per mm2 and 221 per mm2 and 185 per mm2 and 267 per mm2 and 479 per mm2 and 316 per mm2 and 211 per mm2 and 199 per mm2.

**Q.** And the a-galactosidase (MUTE+AD (control yeast); 10 µM)?
**A.** Its a-galactosidase is 0.24 milliunits /(ml x cell) and 0.60 milliunits /(ml x cell) and 0.40 milliunits /(ml x cell).

**Q.** What about the a-galactosidase (MUTE+AD (control yeast); 50 µM) of the same molecule?
**A.** The a-galactosidase was 0.22 milliunits /(ml x cell) and 0.36 milliunits /(ml x cell) and 0.19 milliunits /(ml x cell).

**Q.** What about the a-galactosidase (MUTE+AD (control yeast); 100 µM) of the same molecule?
**A.** Its a-galactosidase is 0.20 milliunits /(ml x cell) and 0.52 milliunits /(ml x cell) and 0.42 milliunits /(ml x cell).

Reference: publication PMC11500415, “Chemical inhibition of stomatal differentiation by perturbation of the master-regulatory bHLH heterodimer via an ACT-Like domain” (Nature Communications, 2024)
